From PMC12177912, “A Geranylated Natural Product Simamycin Disrupts the Allosteric Catalysis of tRNA-2-selenouridine Synthase SelU” (Biochemistry, 2025) come the findings set out here.

The experiment deals with T1, tRNA-2-selenouridine synthase (SelU, MnmH) (Escherichia coli, UniProt Q0TKD8).
T1 construct: M1-A172 (N-terminal rhodanese domain; tags removed with TEV)
Put plainly: intrinsic tryptophan fluorescence quenching titration (Kd at […] °C; […] at […] °C, […] at […] °C, […] at […] °C); STD NMR. Type of experiment: binding.

T1 sequence (Q0TKD8 1-172): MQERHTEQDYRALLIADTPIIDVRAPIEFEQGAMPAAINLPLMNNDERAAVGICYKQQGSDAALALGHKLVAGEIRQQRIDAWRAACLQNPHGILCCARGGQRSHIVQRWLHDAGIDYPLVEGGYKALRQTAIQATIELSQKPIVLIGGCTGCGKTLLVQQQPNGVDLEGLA

As to `CC(C)=CCC/C(C)=C/COC[C@H]1O[C@@H](n2ccc(=O)[nH]c2=O)[C@H](O)[C@@H]1O` [simamycin], the dissociation constant Kd was determined as 29.9 µM.

For orientation: Kd means the concentration at which binding is half-saturated. Higher therefore signals a looser complex.
